Substitutions are numbered along the chain they refer to. pKd: −log10 of the molar value.
How the values were obtained:
Assay in all cases: isothermal titration calorimetry, single-site fit
Assay type in all cases: binding
[1] = molecular target: T1, rOBP1 (rOBP1-wt) (Rattus norvegicus, UniProt P08937); conditions: 50 mM sodium phosphate, pH 7.5, 25 °C
T1 construct: gene Obp1f; S7
T1 sequence (P08937 16-172): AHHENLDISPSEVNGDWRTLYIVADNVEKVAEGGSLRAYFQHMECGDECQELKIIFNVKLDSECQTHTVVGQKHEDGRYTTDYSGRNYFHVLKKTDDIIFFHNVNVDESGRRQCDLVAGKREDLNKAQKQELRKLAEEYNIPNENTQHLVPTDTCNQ

[2] = molecular target: T2, rOBP1 (rOBP1-wt) (Rattus norvegicus, UniProt P08937, S50C/Y98C, form not given); conditions: 50 mM sodium phosphate, pH 7.5, 25 °C
T2 construct: gene Obp1f; S7
T2 sequence (P08937 16-172 S50C/Y98C): T1 sequence (P08937 16-172) with S35C, Y83C

[3] = molecular target: T1, rOBP1 (rOBP1-wt); conditions: 50 mM sodium phosphate, pH 7.5, 25 °C; ligand up to the millimolar range; distal allosteric position

| SMILES | pKd [1] | binding (ITC) [2] | binding (ITC) [3] |
| --- | --- | --- | --- |
| C=CCc1ccc(O)c(OC)c1 [eugenol] | 7.22 | total loss of binding for the three odorants as no heat change was observed | indicating a complete loss of affinity for all ligands |
| Cc1ccc(C(C)C)c(O)c1 [thymol] | 6.36 | total loss of binding for the three odorants as no heat change was observed | indicating a complete loss of affinity for all ligands |

— article PMC12185845, “How allosteric mutations control ligand binding in Lipocalin protein: odorant binding protein as a test case” (Cellular and Molecular Life Sciences: CMLS, 2025)
